Bridges are numbered along the chain shown (N, C = ends). Roman numbers before positions name the chains, in order. Where no end group is shown, it is not given here.
Key:
HIV-specific T-cells = details: dendritic cells presenting Gag- or Nef-specific peptides; cited from earlier work
[1] = test system: latently infected cell lines and primary T cells; details: cited from earlier work
[2] = test system: Anti-C5/gp41 sera from BI400-B immunized rabbits; experiment: Competitive ELISA for rabbit sera after immunization with BI400-B; format: binding; details: for Inhibition of binding of rabbit sera to C5/gp41 (015/201): competitor preincubated with serum, 10-1000 μM
Protocol: 50-100 μl of a mixture of BI400-015 and -201 (pre-incubated in Coating buffer—0.05M Na2CO3 pH9.6; denoted CB—in cold at 16 μg/ml for each peptide 1-3 days prior to coating) or just CB (background control) was used for coating wells in microtiter plates at 4° C. overnight. Plates were then washed 3x with washing buffer (PBS+1% v/v Triton-X100; denoted WB), followed by 2 h blocking at room temperature (RT) with 200 μl/well of blocking buffer (PBS+1% w/v BSA). Plates were then washed 3x with WB, followed by 1 h incubation at 37° C. with 60-100 μl/well of added rabbit serum samples (diluted 1:10-1:250 final concentration) preincubated together (4° C. overnight) with serial dilutions (ranging from 10-1000 μM final concentration) of 400-SEQ.B, BI400-015, BI400-201, BI400-204d, recombinant gp41 (Shin-Won Scientific, SWO 102 gp41), BI301-23 (irrelevant protein; control), no peptide (i.e. PBS; control), LTNP-sera pools (diluted 1:10 final concentration), or Blood donor sera-pools (diluted 1:10 final concentration; control). Plates were then washed 6x with WB, followed by 1 h incubation at RT with 70 μl/well of Alkaline Phosphatase-conjugated Goat-anti-Rabbit-Ig (6 μg/ml; Dako D0487). Plates were then washed 6x with WB, followed by 10-60 min incubation at RT with 100 μl/well of 0.3% w/v of Phenoftalein monophosphate (Sigma P-5758). Plates were finally quenched by adding 100 μl/well of Quench solution (0.1M TRIS+0.1M EDTA+0.5M NaOH+0.01% w/v NaN3; pH14), followed by ELISA reader (ASYS UVM 340) at 550 nm.

[3] = test system: pooled human sera from HIV chronically infected individuals, LTNP and non-infected blood donors; experiment: Seroreactivity of pooled human sera to peptide-coated magnetic particles (general ELISA principle); format: binding; details: peptide 600 μg/ml alone or 300 μg/ml each in combination; positivity determined visually
Protocol: Seroreactivity to SEQ ID NO: 1 alone or in combination with SEQ ID NOs. 6 (with the sequence […]), 8 and 9 was determined according to a general ELISA principle either using magnetic particles as a solid support or attachment of peptides to a 96-well tray.
In the system described below, peptide was coated on to magnetic particles using generally accepted techniques. 300 μg was coated onto particles for all peptides with the exception of SEQ1 where 600 μg was used. SEQ ID NO: 1 (from C5) and SEQ ID NO: 6, 8 and 9 (from gp41) were preincubated overnight at 4 degrees C. to allow interactions to form between between C5 and gp41 sequences respectively and all combined. Sera were then incubated with the peptide coated beads according to established protocols. Visualisation of antibody binding to C5 peptides was achieved using protein G that can bind immunoglobulins from different species coupled to alkaline phosphatase. The positive control was commercially available serum from a sheep immunised with the C5 derived sequence […] (SEQ ID NO: 1).
Pooled sera from 25 LTNP were tested for seroreactivity to SEQ ID NO: 1 alone and SEQ ID NO: 1 when in combination with SEQ ID NOs: 6 ([…]), 8 and 9 respectively and all combined. Pooled sera were also tested from 12 HIV positive, chronically infected individuals and 20 sera from blood donors.

C5/gp41 (015/201) = experiment: Rabbit immunization with BI400-B vaccine, serum ELISA; format: in vivo, New Zealand White female rabbits; details: 500 μg intradermally weeks 0, 2, 6 in Freund's adjuvant; in the presence of PBS
Protocol: New Zealand White female rabbits (n=3) were immunized intradermally at weeks 0, 2 & 6 with 1 ml of BI400-B vaccine consisting of 500 μg BI400-B in 50% V/V Freund's adjuvant (i.e. Complete Freund's adjuvant used for priming, followed by boostings with Incomplete Freund's adjuvant). Individual blood serum was isolated for ELISA.
50-100 μl of a mixture of BI400-015 and -201 (pre-incubated in Coating buffer—0.05M Na2CO3 pH9.6; denoted CB—in cold at 16 μg/ml for each peptide 1-3 days prior to coating) or just CB (background control) was used for coating wells in microtiter plates at 4° C. overnight. Plates were then washed 3x with washing buffer (PBS+1% v/v Triton-X100; denoted WB), followed by 2 h blocking at room temperature (RT) with 200 μl/well of blocking buffer (PBS+1% w/v BSA). […] Plates were finally quenched by adding 100 μl/well of Quench solution (0.1M TRIS+0.1M EDTA+0.5M NaOH+0.01% w/v NaN3; pH14), followed by ELISA reader (ASYS UVM 340) at 550 nm.

Nc1cccc2c1CN(C1CCC(=O)NC1=O)C2=O (stereo not shown) [Lenalidomide]
Function of T-cells after in vitro stimulation in presence of IMiDs (HIV-specific T-cells): a number of improvements in the function of the T-cells

Nc1cccc2c1C(=O)N(C1CCC(=O)NC1=O)C2=O (stereo not shown) [pomalidomide]
Function of T-cells after in vitro stimulation in presence of IMiDs (HIV-specific T-cells): a number of improvements in the function of the T-cells

C/C=C1\NC(=O)[C@H]2CSSCC/C=C/[C@H](CC(=O)N[C@H](C(C)C)C(=O)N2)OC(=O)[C@H](C(C)C)NC1=O [romidepsin, (1S,4S,7Z,10S,16E,21R)-7-ethylidene-4,21-bis(1-methylethyl)-2-oxa-12,13-dithia-5,8,20,23-tetraazabicyclo[8.7.6] tricos-16-ene-3,6,9,19,22-pentone]
Activation of HIV-1 expression [1]: potently activates HIV-1 expression

APTKAKRRVVQREKR [SEQ ID NO: 1]
Inhibition of binding of rabbit sera to C5/gp41 (015/201) [2]: could be inhibited | Seroreactivity, Blood-donors pool [3]: =

BI400-B: SEQ ID NO: 38 and SEQ ID NO: 39 linked via Cys and Lys residues (chain 1 GAKRRVVGGCGGAKRRVVQREKRAGEREKRA; chain 2 GKGGIEEEGGRDRDRGGEQDRDR; bridge I:10-II:2 (inferred))
Inhibition of binding of rabbit sera to C5/gp41 (015/201) [2]: could be inhibited | Competition of anti-C5/gp41 rabbit sera by human sera pools ([2]; sera pools diluted 1:10): competitively inhibited by LTNP-sera pools, but not with BD control sera | Binding of sera from immunized rabbits to C5/gp41 peptides (C5/gp41 (015/201)): bound to peptides corresponding to C5/gp41 (015/201)

DRPEGIEEEGGERDR (Glu can be Gly; Gly can be Arg; Arg can be Gln; Asp can be Gly; Arg can be Lys) [SEQ ID NO: 6]
Inhibition of binding of rabbit sera to C5/gp41 (015/201) [2]: could be inhibited

GGAIVNGSLADDDIVI [SEQ ID NO: 37]
Inhibition of binding of rabbit sera to C5/gp41 (015/201) [2]: could be inhibited

Reference: US10143737B2, “Method for the vaccination against HIV” (Bionor Immuno AS, priority 2014, dated 2018)
